Measurements taken from paper PMC3753754, “Andrographis paniculata Extract and Andrographolide Modulate the Hepatic Drug Metabolism System and Plasma Tolbutamide Concentrations in Rats” (Evidence-based Complementary and Alternative Medicine : eCAM, 2013).

Legend:
[1] = target: T1, pregnane X receptor (PXR) (Rattus norvegicus, UniProt Q9R1A7); assay: EMSA of liver nuclear protein binding to DR4 consensus sequence; assay type: in vivo; settings: APE or andrographolide for 5 days
T1 construct: from tissue; host or cells: crude liver nuclear extract of treated Sprague-Dawley rats
T1 sequence (Q9R1A7 1-431): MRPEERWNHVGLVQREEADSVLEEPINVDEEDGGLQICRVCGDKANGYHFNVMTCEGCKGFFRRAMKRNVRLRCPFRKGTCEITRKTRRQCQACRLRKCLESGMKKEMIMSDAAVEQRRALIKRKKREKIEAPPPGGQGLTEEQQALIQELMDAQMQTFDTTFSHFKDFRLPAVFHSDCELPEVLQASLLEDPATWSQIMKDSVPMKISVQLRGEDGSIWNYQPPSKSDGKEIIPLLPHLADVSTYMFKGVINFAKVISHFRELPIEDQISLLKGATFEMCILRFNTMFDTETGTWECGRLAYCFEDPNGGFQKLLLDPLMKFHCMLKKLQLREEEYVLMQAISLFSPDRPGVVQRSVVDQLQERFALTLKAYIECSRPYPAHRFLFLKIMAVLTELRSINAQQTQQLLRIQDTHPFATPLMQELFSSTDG
T1 sequence (Q05343 1-467 partner): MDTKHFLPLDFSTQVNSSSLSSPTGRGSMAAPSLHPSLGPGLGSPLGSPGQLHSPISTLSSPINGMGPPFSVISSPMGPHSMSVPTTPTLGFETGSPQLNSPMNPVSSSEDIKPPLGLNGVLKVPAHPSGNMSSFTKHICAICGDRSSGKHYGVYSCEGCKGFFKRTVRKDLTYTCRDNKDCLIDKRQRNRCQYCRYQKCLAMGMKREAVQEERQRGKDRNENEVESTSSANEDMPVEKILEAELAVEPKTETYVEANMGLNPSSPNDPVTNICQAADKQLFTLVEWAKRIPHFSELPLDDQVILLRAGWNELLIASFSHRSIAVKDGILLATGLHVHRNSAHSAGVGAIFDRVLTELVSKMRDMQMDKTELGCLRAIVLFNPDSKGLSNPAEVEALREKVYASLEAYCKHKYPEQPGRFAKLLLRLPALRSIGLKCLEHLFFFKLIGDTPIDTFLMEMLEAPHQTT
Description: Nuclear proteins of liver tissues were extracted as described by Tian et al. with some modifications. Briefly, 0.1 g of liver was homogenized (1 : 9, w/v) with 0.9 mL of ice-cold 10 mM HEPES buffer (pH 7.9) containing 10 mM KCl, 1 mM MgCl2, 0.1 mM EDTA, 0.5 mM dithiothreitol, 0.5 mM PMSF, 4 μg/mL leupeptin, and 20 μg/mL aprotinin. The homogenates were placed in an ice bath for 15 min and then centrifuged at 600 ×g for 10 min. Then, 100 μL of 10% Nonidet P-40 was added to the supernatant, and the samples were allowed to sit in an ice bath for 10 min. The supernatant was centrifuged at 5,000 ×g for 5 min. The pellet, containing crude nuclei, was resuspended in 100 μL of hypertonic buffer containing 10 mM HEPES, 400 mM KCl, 1 mM MgCl2, 0.1 mM EDTA, 0.5 mM dithiothreitol, 4 μg/mL leupeptin, 20 μg/mL aprotinin, 25% glycerol, and 0.5 mM PMSF at 4°C for 45 min. Nuclear proteins were then collected by centrifugation at 12,000 ×g for 15 min.
EMSA was performed according to the method reported previously. The LightShift Chemiluminescent EMSA Kit (Pierce, Rockford, IL) and synthetic biotin-labeled double-stranded consensus oligonucleotides of DR4 (5′-[…]-3′) and xenobiotic response element (XRE) (forward: 5′-[…]-3′) were used to measure pregnane X receptor (PXR) and aryl hydrocarbon receptor (AhR) nuclear protein-DNA-binding activity. […]

[2] = tested on: CYP1A1, CYP1A2, CYP2C6, CYP2C11, and CYP3A2; assay: RT-PCR of hepatic CYP isozyme mRNA in treated rats; assay type: in vivo; settings: rat liver, APE or andrographolide for 5 days
Text: Total RNA in liver samples was extracted by using the Trizol reagent (1 : 20, w/v). […] The sequences for the PCR primers were as follows: for CYP1A1 (forward: 5′-[…]-3′; reverse: 5′-[…]-3′), CYP1A2 (forward: 5′-[…]-3′; reverse: 5′-[…]-3′), CYP2C6 (forward: 5′-[…]-3′; reverse: 5′-[…]-3′), CYP2C11 (forward: 5′-[…]-3′; reverse: 5′-[…]-3′), CYP2D1 (forward: 5′-[…]-3′; reverse: 5′-[…]-3′), CYP2E1 (forward: 5′-[…]-3′; reverse: 5′-[…]-3′), CYP3A1 (forward: 5′-[…]-3′; reverse: 5′-[…]-3′), CYP3A2 (forward: 5′-[…]-3′; reverse: 5′-[…]-3′), and P-glycoprotein (forward: 5′-[…]-3′; reverse: 5′-[…]-3′). The PCR for CYP1A1 was performed as follows: 5 min at 95°C and then 35 cycles of 30 s at 94°C, 30 s at 54°C, and 60 s at 72°C. For CYP1A2 and CYP3A2 amplification, the PCR cycle number was 30 times through a 30 s denaturing step at 94°C, a 30 s annealing step at 55°C, and a 30 s elongation step at 72°C. For CYP2D1 and CYP3A1, the PCR cycle number was 30 times through a 60 s denaturing step at 94°C, a 60 s annealing step at 56°C, and a 125 s elongation step at 72°C. […] The PCR amplicons were then electrophoresed in 1% agarose gels containing 40 mM Tris/20 mM glacial acetic acid/2 mM EDTA buffer, and the relative densities of the PCR products were quantitated by use of Image Gauge software (Fujifilm, Tokyo, Japan). […]

C=C1CC[C@@H]2[C@](C)(CO)[C@H](O)CC[C@@]2(C)[C@@H]1C/C=C1/C(=O)OC[C@H]1O [andrographolide, Andrographolide]
Binding activity of the DR4 consensus sequence to nuclear protein PXR [1]: enhanced
mRNA levels of CYP1A1, CYP1A2, CYP2C6, CYP2C11, and CYP3A2 [2]: induced
